Results taken from patent US20220315578A1, “BRD9 BIFUNCTIONAL DEGRADERS AND THEIR METHODS OF USE” (NOVARTIS AG, priority 2019, published 2022).

Biological target: T1, BRD9-GFP (Homo sapiens, UniProt Q9H8M2)
T1 construct: CHYSEL (2A cis-acting hydrolase element) remnant after GFP; mCherry is split off as a separate protein (C); expressed in transfected cells; host or cells: HEK293A cells (Invitrogen R70507), lentiviral transduction with pLenti6-BRD9-GFP-CHYSEL-mCherry, blasticidin selection
T1 sequence (Q9H8M2 1-597): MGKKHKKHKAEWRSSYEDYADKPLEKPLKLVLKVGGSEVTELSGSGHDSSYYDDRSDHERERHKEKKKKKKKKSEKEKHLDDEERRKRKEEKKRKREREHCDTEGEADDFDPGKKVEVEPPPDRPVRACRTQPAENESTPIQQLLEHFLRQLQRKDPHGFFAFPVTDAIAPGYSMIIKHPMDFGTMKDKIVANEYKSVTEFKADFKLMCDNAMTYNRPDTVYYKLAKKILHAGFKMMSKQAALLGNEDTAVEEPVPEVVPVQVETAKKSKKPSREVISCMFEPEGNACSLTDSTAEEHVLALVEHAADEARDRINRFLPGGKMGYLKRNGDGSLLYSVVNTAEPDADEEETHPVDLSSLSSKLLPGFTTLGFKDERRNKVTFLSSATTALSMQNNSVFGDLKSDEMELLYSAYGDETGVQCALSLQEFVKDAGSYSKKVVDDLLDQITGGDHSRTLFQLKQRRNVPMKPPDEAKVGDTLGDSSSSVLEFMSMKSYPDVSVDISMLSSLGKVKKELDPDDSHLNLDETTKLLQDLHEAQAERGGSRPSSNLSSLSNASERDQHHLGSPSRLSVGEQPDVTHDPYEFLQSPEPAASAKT
Experiment: BRD9-GFP protein abundance flow cytometry assay in HEK293A cells
Type: cell-based
Conditions: HEK293A-BRD9-GFP-CHYSEL-mCherry cells; for BRD9 Deg Amax %: 24 h, % protein remaining at the concentration at which maximum degradation is seen; for DC50: 24 h at 37° C., 10-point 1:3 dilution, concentration at which 50% maximal degradation was observed
Method: Compounds of the invention were tested in the following cellular assays. The terms in Table 1 are defined as follows: DC50 refers to the concentration at which 50% maximal degradation was observed; deg Amax is the extent of degradation and the value refers to the % protein remaining at the concentration at which maximum degradation is seen.
BRD9-GFP protein abundance flow cytometry assay in HEK293A cells: Degradation of BRD9 was measured in HEK293A cells expressing BRD9-GFP and mCherry from a stably integrated second generation bicistronic BRD9-GFP-CHYSELmCherry construct. Reduction of the GFP signal measured by flow cytometry served as readout for BRD9 degradation after degrader treatment.
The bicistronic BRD9-GFP-CHYSEL-mCherry construct is based on a pLenti6-DEST vector backbone where a GFP-CHYSEL-mCherry cassette was synthesized and inserted downstream of the DEST cassette by Gibson assembly resulting in the new gateway compatible vector pLenti6-DEST-GFP-CHYSEL-mCherry to allow Gateway cloning with pENTR221-BRD9 (w/o ATG) to obtain the final sensor construct pLenti6-BRD9-GFP-CHYSEL-mCherry.
HEK293 Å-BRD9-GFP-CHYSEL-mCherry sensor cells were generated by lentiviral vector transduction using the pLenti6-BRD9-GFP-CHYSEL-mCherry sensor construct described before. […] The mix was incubated for another 20 min at RT and then added to 1 ml of a freshly prepared suspension of HEK293FT cells in a well of a 6-well plate (concentration 1.2×10^6 cells/ml). 1 day after transfection, the medium was replaced with 1.5 ml of complete growth medium (DMEM high Glucose+10% FCS+1% L-Glutamine+1% NEAA+1% NaPyr.). 48 h post transfection supernatant containing viral transducing particles was collected and frozen at −80° C. […] Infection was performed with […] of collected supernatant containing viral transducing particles in 1 ml medium including 8 μg/ml polybrene. 24 h post infection, stably transfected cells were selected with blasticidin at a concentration of 8 μg/ml.
Stable HEK293 Å-BRD9-GFP-CHYSEL-mCherry cells were maintained in complete growth medium (DMEM high Glucose+10% FCS+1% L-Glutamine+1% NEAA+1% NaPyr.) with passaging performed twice per week. On Day 0, HEK293 Å-BRD9-GFP-CHYSEL-mCherry cells were seeded at 10,000 cells/well in a 96-well microtiter plate in […] complete medium. On Day 1, cells were treated in duplicate with 10-point 1:3 dilution series of compound using the HP D300 Digital Dispenser (Tecan). DMSO concentrations were normalized across the plate to 0.1%. On Day 2, after 24 h of incubation at 37° C., treatment media was discarded, cells rinsed with 100 ul/well PBS and then detached using 40 ul trypsin/well for 5 min. Trypsin was neutralized with 100 ul/well PBS+20% FCS). Flow cytometry was performed on the samples using the Beckman Coulter CytoFLEX flow cytometer. Cell identification was then performed using forward (FSC) vs. side scatter (SSC) plots. Single cell discrimination is performed using FSC-Width (FSC-W) vs. FSC-Height (FSC-H) plots. Median GFP/mCherry ratio values for 5,000 single cells are used to determine BRD9 levels. Median GFP/mCherry ratio values from HEK293 Å-mCherry are used as a background signal and thus defining 0% BRD9 signal. Median GFP/mCherry ratio values from DMSO treated HEK293 Å-BRD9-GFP-CHYSEL-mCherry are used to define 100% BRD9 signal for subsequent DC50 curves (concentration at 50% BRD9 degradation). Concentration response curves plotting relative reduction of the GFP/mCherry ratio signal (measured by flow cytometry) versus 10 compound concentrations (starting concentration […], 3 fold dilution steps) of the compounds allowed generation of DC50 values. Data is shown in Tables 2 and 3, in which, DC50 refers to the concentration at which 50% maximal degradation was observed; deg Amax is the extent of degradation and the value refers to the % protein remaining at the concentration at which maximum degradation is seen.

BRD9 Deg Amax %	DC50	Compound
22.70%	0.002 µM	COc1cc(-c2cn(C)c(=O)c3cnccc23)cc(OC)c1CCCN1CCC(OC2CCN(C(=O)c3ccc(Cl)c(N4CCC(=O)NC4=O)c3)CC2)CC1 [Compound A28, 1-(2-Chloro-5-(4-((1-(3-(2,6-dimethoxy-4-(2-methyl-1-oxo-1,2-dihydro-2,7-naphthyridin-4-yl)phenyl)propyl)piperidin-4-yl)oxy)piperidine-1-carbonyl)phenyl)dihydropyrimidine-2,4(1H,3H)-dione]
15.75%	0.034 µM	COc1cc(-c2cn(C)c(=O)c3cnccc23)c(OC)cc1CN1CCC(OC2CCN(C(=O)c3ccc(C)c(N4CCC(=O)NC4=O)c3)CC2)CC1 [Compound A29, 1-(5-(4-((1-(2,5-Dimethoxy-4-(2-methyl-1-oxo-1,2-dihydro-2,7-naphthyridin-4-yl)benzyl)piperidin-4-yl)oxy)piperidine-1-carbonyl)-2-methylphenyl)dihydropyrimidine-2,4(1H,3H)-dione]
13.99%	0.016 µM	COc1cc(-c2cn(C)c(=O)c3cnccc23)c(OC)cc1CN1CCC(OC2CCN(C(=O)c3ccc(Cl)c(N4CCC(=O)NC4=O)c3)CC2)CC1 [Compound A30, 1-(2-Chloro-5-(4-((1-(2,5-dimethoxy-4-(2-methyl-1-oxo-1,2-dihydro-2,7-naphthyridin-4-yl)benzyl)piperidin-4-yl)oxy)piperidine-1-carbonyl)phenyl)dihydropyrimidine-2,4(1H,3H)-dione]
15.11%	0.01 µM	COc1ccc(C(=O)N2CCC(OC3CCN(C(=O)/C=C/c4c(OC)cc(-c5cn(C)c(=O)c6cnccc56)cc4OC)CC3)CC2)cc1N1CCC(=O)NC1=O [Compound A31, (E)-1-(5-(4-((1-(3-(2,6-dimethoxy-4-(2-methyl-1-oxo-1,2-dihydro-2,7-naphthyridin-4-yl)phenyl)acryloyl)piperidin-4-yl)oxy)piperidine-1-carbonyl)-2-methoxyphenyl)dihydropyrimidine-2,4(1H,3H)-dione]
16.20%	0.006 µM	COc1ccc(C(=O)N2CCC(OC3CCN(CCc4c(OC)cc(-c5cn(C)c(=O)c6cnccc56)cc4OC)CC3)CC2)cc1N1CCC(=O)NC1=O [Compound A32, 1-(5-(4-((1-(2,6-Dimethoxy-4-(2-methyl-1-oxo-1,2-dihydro-2,7-naphthyridin-4-yl)phenethyl)piperidin-4-yl)oxy)piperidine-1-carbonyl)-2-methoxyphenyl)dihydropyrimidine-2,4(1H,3H)-dione]
13.30%	0.034 µM	COc1cc(-c2cn(C)c(=O)c3cnccc23)cc(OC)c1CN1CCC(OC2CCN(C(=O)c3ccc(C)c(N4CCC(=O)NC4=O)c3)CC2)CC1 [Compound A33, 1-(5-(4-((1-(2,6-Dimethoxy-4-(2-methyl-1-oxo-1,2-dihydro-2,7-naphthyridin-4-yl)benzyl)piperidin-4-yl)oxy)piperidine-1-carbonyl)-2-methylphenyl)dihydropyrimidine-2,4(1H,3H)-dione]
13.80%	0.037 µM	COc1ccc(C(=O)N2CCC(OCCN3CCN(Cc4c(OC)cc(-c5cn(C)c(=O)c6cnccc56)cc4OC)CC3)CC2)cc1N1CCC(=O)NC1=O [Compound A34, 1-(5-(4-(2-(4-(2,6-Dimethoxy-4-(2-methyl-1-oxo-1,2-dihydro-2,7-naphthyridin-4-yl)benzyl)piperazin-1-yl)ethoxy)piperidine-1-carbonyl)-2-methoxyphenyl)dihydropyrimidine-2,4(1H,3H)-dione]
13.19%	0.031 µM	COc1cc(-c2cn(C)c(=O)c3cnccc23)cc(OC)c1CN1CCC(OC2CCN(C(=O)COc3ccc(N4CCC(=O)NC4=O)cc3)CC2)CC1 [Compound A35, 1-(4-(2-(4-((1-(2,6-Dimethoxy-4-(2-methyl-1-oxo-1,2-dihydro-2,7-naphthyridin-4-yl)benzyl)piperidin-4-yl)oxy)piperidin-1-yl)-2-oxoethoxy)phenyl)dihydropyrimidine-2,4(1H,3H)-dione]
18.42%	0.039 µM	COc1cc(-c2cn(C)c(=O)c3cnccc23)cc(OC)c1CN1CCC(OC2CCN(C(=O)c3cccc(N4CCC(=O)NC4=O)c3)CC2)CC1 [Compound A36, 1-(3-(4-((1-(2,6-Dimethoxy-4-(2-methyl-1-oxo-1,2-dihydro-2,7-naphthyridin-4-yl)benzyl)piperidin-4-yl)oxy)piperidine-1-carbonyl)phenyl)dihydropyrimidine-2,4(1H,3H)-dione]
13.01%	0.002 µM	COc1ccc(C(=O)N2CCC(OC3CCN(CCCc4c(OC)cc(-c5cn(C)c(=O)c6cnccc56)cc4OC)CC3)CC2)cc1N1CCC(=O)NC1=O [Compound A37, 1-(5-(4-((1-(3-(2,6-Dimethoxy-4-(2-methyl-1-oxo-1,2-dihydro-2,7-naphthyridin-4-yl)phenyl)propyl)piperidin-4-yl)oxy)piperidine-1-carbonyl)-2-methoxyphenyl)dihydropyrimidine-2,4(1H,3H)-dione]
15.53%	0.001 µM	COc1cc(-c2cn(C)c(=O)c3cnccc23)cc(OC)c1CCN1CCC(OC2CCN(C(=O)c3ccc(Cl)c(N4CCC(=O)NC4=O)c3)CC2)CC1 [Compound A38, 1-(2-Chloro-5-(4-((1-(2,6-dimethoxy-4-(2-methyl-1-oxo-1,2-dihydro-2,7-naphthyridin-4-yl)phenethyl)piperidin-4-yl)oxy)piperidine-1-carbonyl)phenyl)dihydropyrimidine-2,4(1H,3H)-dione]
16.72%	0.021 µM	COc1cc(-c2cn(C)c(=O)c3cnccc23)c(OC)cc1CCN1CCC(OC2CCN(C(=O)c3ccc(Cl)c(N4CCC(=O)NC4=O)c3)CC2)CC1 [Compound A39, 1-(2-Chloro-5-(4-((1-(2,5-dimethoxy-4-(2-methyl-1-oxo-1,2-dihydro-2,7-naphthyridin-4-yl)phenethyl)piperidin-4-yl)oxy)piperidine-1-carbonyl)phenyl)dihydropyrimidine-2,4(1H,3H)-dione]
